Laboratory results reported in patent US20050085432A1, “Methods of using conjugates of saccharides and acetamidino or guanidino compounds for treating bacterial infections” (priority 2001, published 2005).

Key:
E. coli RNase P = assay: RNase P activity assay (ptRNA processing), in-vitro reconstituted E. coli RNase P; assay type: biochemical; conditions: for inhibition of RNase P processing activity: radiolabeled ptRNA Tyr su3+ substrate, FIG. 3; for effect of poly A RNA on ability to inhibit E. coli RNase P: as much as 1 μM poly A RNA added; for IC50: initial reaction velocities at increasing inhibitor concentrations, FIG. 4a-b, read-out: IC50, inhibition of E. coli RNase P activity
Procedure: RNase P from E. coli was prepared and purified according to Vioque, A. et al. (1988) J. Mol. Biol. 202:835-848 and Gopalan, V. (1997) J. Mol. Biol. 267:818-829.
ptRNA^Tyrsu3+ was prepared by in vitro transcription of FokI-digested pUC19TyrT [Vioque, A. et al. (1988) J. Mol. Biol. 202:835-848].
(§1) RNase P activity was determined in the presence or absence of AAC inhibitors suspended in 50 mM Tris-Hcl (7.2), 5 % (w/v) polyethylene glycol 8000, 1 mM NH4Cl, 10 mM spermidine, 10 mM MgCl2. Reactions were carried under multiple-tumover conditions (for example, 100 nM of radio-labeled ptRNA^Tyrsu3+ and 0.5 nM E. coli RNase P holoenzyme).
Following holoenzyme assembly, AAC inhibitors were added to the reaction mixture and incubated for 5 minutes prior to the addition of [^32P]-ptRNA^Tyrsu3+ substrate. Reactions were allowed to proceed for the indicated times and were terminated by adding a quenching dye [7 M Urea, 10 mM EDTA, 10% (v/v) phenol]. Reaction products were resolved by gel electrophoresis (8% polyacrylamide/7 M Urea) and auto-radiograms were obtained.
(§2) Extent of substrate cleavage was quantified using a PhosphorImager (Molecular Dynamics) and ImageQuant softwares.

[1] = system: RNase P derived from P. gingivalis; assay: RNase P activity assay (ptRNA processing), reconstituted P. gingivalis RNase P; assay type: biochemical, Porphyromonas gingivalis; conditions: FIG. 3
Procedure: (§3) Polynucleotide sequences of Neisseria gonnorhoeae, Porphyromonas gingivalis and Streptococcus pneumoniae (SEQ ID NOS: 1, 3 and 5, respectively) expressing amino acid (SEQ ID NOS: 2, 4 and 6, respectively) subunits of RNase P were PCR amplified using standard PCR methodology. The genes encoding the RNA subunit of RNase P were cloned into pUC19 under the transcriptional control of a T7 RNA polymerase promoter. T7 RNA polymerase-mediated run-off in vitro transcription was performed on individual clones to generate the respective RNase P RNAs, which were then purified using Quick Spin columns. cDNAs encoding the protein subunits of the various bacterial species were subcloned into either expression vectors: pCRT7TOPO or pBAD (Invitrogen, Carlsbad, Calif.). Proteins were over-expressed in E. coli as His6-tagged fusion proteins and purified to homogeneity using a combination of cation exchange and immobilized metal affinity chromatography.
as §1, with “holoenzyme). […]” for “holoenzyme).”
as §2

human RNase P = assay: Activity of partially purified human RNase P (ptRNA processing); assay type: biochemical; conditions: FIG. 5; for inhibition of human RNase P: 7.5 μM; for effect on human RNase P activity: concentrations 10-fold greater than the IC50 values for E. coli RNase P
Procedure: In order to determine if the AAC inhibitors of the present invention cross-react with human RNase P, the activity of a partially purified human enzyme was tested in the absence or presence of various concentrations of NeoR and […].

[2] = system: RNP complex formed between HIV TAR RNA and Tat-derived peptide; conditions: 10-fold excess of tRNA; cited from earlier work
[3] = target: various bacterial RNase P; assay: RNase P activity assay, various bacterial RNase P; assay type: biochemical; conditions: concentration range
Procedure: as §3
as §1, with “holoenzyme). […]” for “holoenzyme).”
as §2

[4] = system: RNase P derived from S. pneumoniae; assay: RNase P activity assay (ptRNA processing), reconstituted S. pneumoniae RNase P; assay type: biochemical, Streptococcus pneumoniae; conditions: FIG. 3
Procedure: as §3
as §1, with “holoenzyme). […]” for “holoenzyme).”
as §2

[5] = system: RNase P derived from N. gonnorhoeae; assay: RNase P activity assay (ptRNA processing), reconstituted N. gonnorhoeae RNase P; assay type: biochemical, Neisseria gonnorhoeae; conditions: FIG. 3
Procedure: as §3
as §1, with “holoenzyme). […]” for “holoenzyme).”
as §2

[6] = two single doses of 25 mg/kg body weight for the duration of two hours; cited from earlier work

RNase P derived from P. gingivalis, sequence (as listed by the source): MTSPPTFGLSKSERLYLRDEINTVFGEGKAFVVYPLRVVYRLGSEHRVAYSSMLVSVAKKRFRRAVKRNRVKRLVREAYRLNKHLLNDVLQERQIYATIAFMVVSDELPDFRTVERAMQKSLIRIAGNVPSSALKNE

| Compound | inhibition of RNase P specific activity (E. coli RNase P; 10-fold excess concentration over the ptRNA substrate, FIG. 6) | inhibition of RNase P processing activity (E. coli RNase P; 1500 nM R3G) | effect of poly A RNA on ability to inhibit E. coli RNase P (E. coli RNase P; FIG. 6) | IC50 (E. coli RNase P) [nM] | susceptibility of RNase P activity to the inhibitor ([1]; 1500 nM R3G) | inhibition of human RNase P (human RNase P) | effect on human RNase P activity (human RNase P) | effect of tRNA on ability to disrupt the TAR RNA/Tat-derived peptide complex [2] | IC50 for inhibition of various bacterial RNase P [3] | inhibition of RNase P processing activity ([4]; 1500 nM R3G) | inhibition of RNase P processing activity ([5]; 1500 nM R3G) | inhibition of RNase P processing activity (E. coli RNase P; 500 nM NeoR) | IC50 fold lower than that of the parental aminoglycoside (E. coli RNase P; versus literature value of parental aminoglycoside (Mikkelsen 1999)) [fold] | susceptibility of RNase P activity to the inhibitor ([1]; 500 nM NeoR) | toxicity to mice [6] | inhibition of RNase P processing activity ([4]; 500 nM NeoR) | inhibition of RNase P processing activity ([5]; 500 nM NeoR) |
| --- | --- | --- | --- | --- | --- | --- | --- | --- | --- | --- | --- | --- | --- | --- | --- | --- | --- |
| N=C(N)NCCC[C@H](N)C(=O)O [L-Arginine, reference compound] | did not inhibit | – | – | – | – | – | – | – | – | – | – | – | – | – | – | – | – |
| triargininamido-gentamycin C [R3G] | – | nearly complete inhibition | failed to alter | 300 | less susceptible | nearly complete inhibition | largely unaffected | no effect | sub-micromolar | nearly complete inhibition | nearly complete inhibition | – | – | – | – | – | – |
| hexa-argininamido-neomycin B [NeoR] | – | – | failed to alter | 125 | – | nearly complete inhibition | largely unaffected | – | sub-micromolar | – | – | nearly complete inhibition | 100 | less susceptible | not toxic | nearly complete inhibition | nearly complete inhibition |
